Experimental data published in patent US11584714B2 (priority 2018, dated 2023).
Where a name gives a salt, the structure may show the parent alone. Read-outs that look alike come from different tables or passages of the source.

What was measured:
Format in all cases: biochemical
MASP-2 (CCP1-CCP2-SP) = MASP-2 (CCP1-CCP2-SP) (Homo sapiens (Human), UniProt O00187); test: biochemical; conditions: for Ki: read-out: MASP-2 Ki; for MASP-2 vs. thrombin selectivity: selectivity for MASP-2 inhibition versus thrombin
Chain of MASP-2 (CCP1-CCP2-SP) (O00187 445-686): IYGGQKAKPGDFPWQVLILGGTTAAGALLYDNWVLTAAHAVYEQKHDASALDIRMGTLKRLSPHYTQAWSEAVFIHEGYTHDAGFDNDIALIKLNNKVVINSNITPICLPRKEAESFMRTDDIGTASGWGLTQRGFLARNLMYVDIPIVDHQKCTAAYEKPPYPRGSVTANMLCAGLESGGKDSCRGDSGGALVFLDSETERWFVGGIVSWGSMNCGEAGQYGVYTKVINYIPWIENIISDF

mMASP-2 = mMASP-2 (Mus musculus (Mouse), UniProt Q91WP0); test: Enzymatic inhibition of mMASP-2; conditions: read-out: mMASP-2 Ki
Chain of mMASP-2 (Q91WP0 20-685): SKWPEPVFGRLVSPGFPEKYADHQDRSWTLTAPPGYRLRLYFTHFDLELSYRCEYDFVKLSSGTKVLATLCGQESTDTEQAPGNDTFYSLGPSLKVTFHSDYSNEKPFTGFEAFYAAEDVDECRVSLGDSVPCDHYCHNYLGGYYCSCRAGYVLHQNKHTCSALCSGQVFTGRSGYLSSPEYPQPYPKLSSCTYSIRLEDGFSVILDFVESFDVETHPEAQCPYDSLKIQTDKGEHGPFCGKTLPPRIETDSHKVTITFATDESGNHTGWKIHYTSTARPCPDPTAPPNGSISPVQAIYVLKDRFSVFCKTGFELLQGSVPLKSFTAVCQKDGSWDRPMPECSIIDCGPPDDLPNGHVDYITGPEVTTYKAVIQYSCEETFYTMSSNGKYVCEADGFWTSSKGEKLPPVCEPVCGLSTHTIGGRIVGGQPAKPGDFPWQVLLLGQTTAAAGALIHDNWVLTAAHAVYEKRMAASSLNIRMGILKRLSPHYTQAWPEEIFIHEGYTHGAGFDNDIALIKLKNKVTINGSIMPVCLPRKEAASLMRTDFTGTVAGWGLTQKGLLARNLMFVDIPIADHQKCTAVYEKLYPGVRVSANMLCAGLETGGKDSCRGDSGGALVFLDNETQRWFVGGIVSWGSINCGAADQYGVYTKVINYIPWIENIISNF

human α-thrombin = human α-thrombin (Homo sapiens (Human), UniProt P00734); test: Enzymatic assay for thrombin (Boc-VPR-AMC substrate)
Lectin Pathway = test: Lectin pathway activation assay in human serum (mannan-coated ELISA, C3c detection); conditions: 1% human serum

SMILES	Ki (MASP-2 (CCP1-CCP2-SP)) [nM]	Ki (mMASP-2) [nM]	Ki (human α-thrombin; read-out: Thrombin Ki) [µM]	IC50 (Lectin Pathway) [nM]	MASP-2 vs. thrombin selectivity (MASP-2 (CCP1-CCP2-SP))	Ki (human α-thrombin; Thrombin Ki (μM)) [µM]
Cc1nc(N)ccc1CNC(=O)[C@H](C)NC(=O)[C@H]1Cc2c(sc3ccccc23)CN1 [compound 1400, (R)—N—((S)-1-(((6-Amino-2-methylpyridin-3-yl)methyl)amino)-1-oxopropan-2-yl)-1,2,3,4-tetrahydrobenzo[4,5]thieno[2,3-c]pyridine-3-carboxamide Hydrochloride]	< 500	2500 to 10000	> 25	500 to 5000		
C[C@H](NC(=O)[C@H]1C[C@H](Cc2cccc3ccccc23)CN1)C(=O)NCc1cc(Cl)ccc1-n1cnnn1 [compound 1414, (2R,4S)—N—((S)-1-((5-Chloro-2-(1H-tetrazol-1-yl)benzyl)amino)-1-oxopropan-2-yl)-4-(naphthalen-1-ylmethyl)pyrrolidine-2-carboxamide Hydrochloride]	< 500	< 500	< 0.5	50 to 500	−− (<1.0-fold)	
C[C@H](NC(=O)[C@H]1C[C@H](Cc2cccc3ccccc23)CN1)C(=O)NCc1cnc2[nH]cc(Cl)c2c1 [compound 1415, (2R,4S)—N—((S)-1-(((3-Chloro-1H-pyrrolo[2,3-b]pyridin-5-yl)methyl)amino)-1-oxopropan-2-yl)-4-(naphthalen-1-ylmethyl)pyrrolidine-2-carboxamide Hydrochloride]	< 500	< 500	< 0.5	50 to 500	* (≥1.0 to <5.0-fold)	
Cc1cc(C)cc(C[C@@H]2CN[C@@H](C(=O)N[C@@H](C)C(=O)NCc3cc(Cl)ccc3-n3cnnn3)C2)c1 [compound 1416, (2R,4S)—N—((S)-1-((5-Chloro-2-(1H-tetrazol-1-yl)benzyl)amino)-1-oxopropan-2-yl)-4-(3,5-dimethylbenzyl)pyrrolidine-2-carboxamide Hydrochloride]	< 500	< 500	< 0.5	50 to 500	** (≥5.0 to <25-fold)	
Cc1nc(N)ccc1CNC(=O)[C@H](C)NC(=O)[C@H]1C[C@H](Cc2ccc(Cl)c(Cl)c2)CN1 [compound 1422, (2R,4S)—N—((S)-1-(((6-Amino-2-methylpyridin-3-yl)methyl)amino)-1-oxopropan-2-yl)-4-(3,4-dichlorobenzyl)pyrrolidine-2-carboxamide Dihydrochloride]	< 500	< 500		500 to 5000	**** (≥100-fold)	2.5 to 10
Cc1nc(N)ccc1CNC(=O)[C@H](C)NC(=O)[C@H]1C[C@H](Cc2ccc(F)c3ccccc23)CN1 [compound 1423, (2R,4S)—N—((S)-1-(((6-Amino-2-methylpyridin-3-yl)methyl)amino)-1-oxopropan-2-yl)-4-((4-fluoronaphthalen-1-yl)methyl)pyrrolidine-2-carboxamide Dihydrochloride]	< 500	< 500		50 to 500	**** (≥100-fold)	2.5 to 10
Cc1nc(N)ccc1CNC(=O)[C@H](C)NC(=O)[C@H]1C[C@H](Cc2ccc(C#N)cc2)CN1 [compound 1428, (2R,4S)—N—((S)-1-(((6-Amino-2-methylpyridin-3-yl)methyl)amino)-1-oxopropan-2-yl)-4-(4-cyanobenzyl)pyrrolidine-2-carboxamide Di-trifluoroacetate salt]	< 500	500 to 2500		500 to 5000	**** (≥100-fold)	10 to 25
Cc1nc(N)ccc1CNC(=O)[C@H](C)NC(=O)[C@H]1C[C@H](Cc2cccc(C#N)c2)CN1 [compound 1429, (2R,4S)—N—((S)-1-(((6-Amino-2-methylpyridin-3-yl)methyl)amino)-1-oxopropan-2-yl)-4-(3-cyanobenzyl)pyrrolidine-2-carboxamide Di-trifluoroacetate salt]	< 500	< 500		500 to 5000	**** (≥100-fold)	2.5 to 10
Cc1nc(N)ccc1CNC(=O)[C@H](C)NC(=O)[C@H]1C[C@H](Cc2ccc(Oc3ccccc3)cc2)CN1 [compound 1430, (2R,4S)—N—((S)-1-(((6-Amino-2-methylpyridin-3-yl)methyl)amino)-1-oxopropan-2-yl)-4-(4-phenoxybenzyl)pyrrolidine-2-carboxamide Di-trifluoroacetate salt]	< 500	< 500	> 25	500 to 5000	**** (≥100-fold)	
Cc1nc(N)ccc1CNC(=O)[C@H](C)NC(=O)[C@H]1C[C@H](Cc2ccc(C#N)c3ccccc23)CN1 [compound 1431, (2R,4S)—N—((S)-1-(((6-Amino-2-methylpyridin-3-yl)methyl)amino)-1-oxopropan-2-yl)-4-((4-cyanonaphthalen-1-yl)methyl)pyrrolidine-2-carboxamide Dihydrochloride]	< 500	< 500		50 to 500	**** (≥100-fold)	10 to 25
Cc1nc(N)ccc1CNC(=O)[C@H](C)NC(=O)[C@H]1C[C@H](Cc2cc(Cl)cc3ccccc23)CN1 [compound 1432, (2R,4S)—N—((S)-1-(((6-Amino-2-methylpyridin-3-yl)methyl)amino)-1-oxopropan-2-yl)-4-((3-chloronaphthalen-1-yl)methyl)pyrrolidine-2-carboxamide Dihydrochloride]	< 500	< 500		500 to 5000	**** (≥100-fold)	10 to 25
C[C@H](NC(=O)[C@H]1C[C@@H](c2ccccc2)CCN1)C(=O)NCc1cnc2[nH]cc(Cl)c2c1 [compound 1433, (2R,4S)—N—((S)-1-(((3-Chloro-1H-pyrrolo[2,3-b]pyridin-5-yl)methyl)amino)-1-oxopropan-2-yl)-4-phenylpiperidine-2-carboxamide]	< 500	< 500		50 to 500	**** (≥100-fold)	0.5 to 2.5
Cc1nc(N)ccc1CNC(=O)[C@H](C)NC(=O)[C@H]1C[C@H](Cc2cc(Cl)cc(Cl)c2)CN1 [compound 1435, (2R,4S)—N—((S)-1-(((6-Amino-2-methylpyridin-3-yl)methyl)amino)-1-oxopropan-2-yl)-4-(3,5-dichlorobenzyl)pyrrolidine-2-carboxamide Dihydrochloride]	< 500	< 500		500 to 5000	**** (≥100-fold)	10 to 25
Cc1nc(N)ccc1CNC(=O)[C@@H]1CCN1C(=O)[C@H]1C[C@H](Cc2ccc(Br)cc2)CN1 [compound 1438, (S)—N-((6-Amino-2-methylpyridin-3-yl)methyl)-1-((2R,4S)-4-(4-bromobenzyl)pyrrolidine-2-carbonyl)azetidine-2-carboxamide Di-trifluoroacetate salt]	< 500	500 to 2500	< 0.5	500 to 5000	** (≥5.0 to <25-fold)	
Cc1nc(N)ccc1CNC(=O)[C@H](C)NC(=O)[C@H]1C[C@@H](c2ccccc2)CCN1C [compound 1441, (2R,4S)—N—((S)-1-(((6-Amino-2-methylpyridin-3-yl)methyl)amino)-1-oxopropan-2-yl)-1-methyl-4-phenylpiperidine-2-carboxamide]	< 500	< 500	> 25	50 to 500		
Cc1nc(N)ccc1CNC(=O)[C@H](C)NC(=O)[C@H]1C[C@H](Cc2ccc(Cl)cc2Cl)CN1 [compound 1443, (2R,4S)—N—((S)-1-(((6-Amino-2-methylpyridin-3-yl)methyl)amino)-1-oxopropan-2-yl)-4-(2,4-dichlorobenzyl)pyrrolidine-2-carboxamide Dihydrochloride]	< 500	< 500		500 to 5000	*** (≥25 to <100-fold)	0.5 to 2.5
Cc1nc(N)ccc1CNC(=O)[C@H](C)NC(=O)[C@H]1C[C@H](Cc2cc(Cl)ccc2Cl)CN1 [compound 1444, (2R,4S)—N—((S)-1-(((6-Amino-2-methylpyridin-3-yl)methyl)amino)-1-oxopropan-2-yl)-4-(2,5-dichlorobenzyl)pyrrolidine-2-carboxamide Dihydrochloride]	< 500	< 500	< 0.5	500 to 5000	** (≥5.0 to <25-fold)	
Cc1nc(N)ccc1CNC(=O)[C@H](C)NC(=O)[C@H]1C[C@H](Oc2ccc(Br)cc2)CN1 [compound 1445, (2R,4S)—N—((S)-1-(((6-Amino-2-methylpyridin-3-yl)methyl)amino)-1-oxopropan-2-yl)-4-(4-bromophenoxy)pyrrolidine-2-carboxamide Dihydrochloride]	< 500	500 to 2500	> 25	5000 to 50000	**** (≥100-fold)	
Cc1nc(N)ccc1CNC(=O)[C@H](C)NC(=O)[C@H]1C[C@H](Oc2ccccc2)CN1 [compound 1446, (2R,4S)—N—((S)-1-(((6-Amino-2-methylpyridin-3-yl)methyl)amino)-1-oxopropan-2-yl)-4-phenoxypyrrolidine-2-carboxamide]	< 500	500 to 2500	> 25	5000 to 50000	**** (≥100-fold)	
Cc1nc(N)ccc1CNC(=O)[C@H](C)NC(=O)[C@H]1C[C@H](Cc2ccc(F)cc2)CN1 [compound 1447, (2R,4S)—N—((S)-1-(((6-Amino-2-methylpyridin-3-yl)methyl)amino)-1-oxopropan-2-yl)-4-(4-fluorobenzyl)pyrrolidine-2-carboxamide Di-trifluoroacetate salt]	< 500	< 500		500 to 5000	**** (≥100-fold)	2.5 to 10
